Experimental data published in PMC4007162 (Journal of molecular endocrinology, 2011).

Biological target: T1, ERα (Homo sapiens, UniProt P03372)
T1 sequence (P03372 1-595): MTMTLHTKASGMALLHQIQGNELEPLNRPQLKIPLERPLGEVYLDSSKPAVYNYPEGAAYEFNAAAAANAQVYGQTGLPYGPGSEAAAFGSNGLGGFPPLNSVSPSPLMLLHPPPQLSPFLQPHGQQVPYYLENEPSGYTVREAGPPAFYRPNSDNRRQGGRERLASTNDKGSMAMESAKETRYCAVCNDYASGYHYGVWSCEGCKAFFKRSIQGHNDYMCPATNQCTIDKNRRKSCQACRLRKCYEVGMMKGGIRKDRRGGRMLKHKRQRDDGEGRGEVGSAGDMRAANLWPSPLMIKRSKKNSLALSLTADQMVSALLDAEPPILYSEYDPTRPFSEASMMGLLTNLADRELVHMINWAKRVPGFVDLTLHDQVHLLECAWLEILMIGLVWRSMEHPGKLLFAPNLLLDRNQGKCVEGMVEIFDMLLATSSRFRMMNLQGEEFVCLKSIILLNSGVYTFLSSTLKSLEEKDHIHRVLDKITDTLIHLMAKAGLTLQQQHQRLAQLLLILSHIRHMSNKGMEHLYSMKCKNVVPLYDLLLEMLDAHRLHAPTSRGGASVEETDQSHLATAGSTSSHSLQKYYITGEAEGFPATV
Experiment: fluorescence polarization competition with ES2 tracer, recombinant ER
Type: binding

- IC50: 0.0858 µM
Structure (SMILES): Oc1ccc(Nc2nc(-c3ccc(Cl)cc3)cs2)cc1 [SKI-II, 4-[4-(4-chloro-phenyl)-thiazol-2-ylamino]-phenol]
